Experimental data as given in patent US9062124B2, “GIP-based mixed agonists for treatment of metabolic disorders and obesity” (priority 2008, dated 2015).
One block for each compound: values may come before it. Where a SMILES comes first, the peptide text is derived from it. Bridges are numbered along the chain shown (N, C = ends).

Legend:
Type in all cases: cell-based
[1] = biological target: T1, glucagon receptor (Homo sapiens, UniProt P47871); assay: cAMP synthesis functional assay (firefly luciferase reporter in HEK293 cells), glucagon receptor; conditions: Table 1; relative to the native hormone of the indicated receptor
T1 construct: expressed in transfected cells; host or cells: HEK293

[2] = biological target: T2, GLP-1 receptor (Homo sapiens, UniProt P43220); assay: cAMP synthesis functional assay (firefly luciferase reporter in HEK293 cells), GLP-1 receptor; conditions: Table 1; for GLP-1 Receptor relative activity: relative to the native hormone of the indicated receptor
T2 construct: expressed in transfected cells; host or cells: HEK293

[3] = biological target: T3, GIP receptor (Homo sapiens, UniProt P48546); assay: cAMP synthesis functional assay (firefly luciferase reporter in HEK293 cells), GIP receptor; conditions: Table 1; relative to the native hormone of the indicated receptor
T3 construct: expressed in transfected cells; host or cells: HEK293
T3 sequence (P48546 22-466): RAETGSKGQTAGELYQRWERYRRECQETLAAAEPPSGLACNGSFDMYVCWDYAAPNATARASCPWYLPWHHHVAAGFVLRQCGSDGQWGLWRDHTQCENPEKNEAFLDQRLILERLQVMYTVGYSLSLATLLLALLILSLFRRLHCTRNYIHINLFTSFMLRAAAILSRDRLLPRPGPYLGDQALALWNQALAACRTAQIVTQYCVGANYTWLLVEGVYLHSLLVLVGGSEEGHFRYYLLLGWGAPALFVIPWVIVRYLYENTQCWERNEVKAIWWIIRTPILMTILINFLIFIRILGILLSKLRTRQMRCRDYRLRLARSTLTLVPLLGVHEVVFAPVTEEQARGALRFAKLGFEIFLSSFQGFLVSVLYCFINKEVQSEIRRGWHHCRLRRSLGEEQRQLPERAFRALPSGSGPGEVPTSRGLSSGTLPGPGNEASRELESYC

T2 sequence (P43220 24-463, species assumed): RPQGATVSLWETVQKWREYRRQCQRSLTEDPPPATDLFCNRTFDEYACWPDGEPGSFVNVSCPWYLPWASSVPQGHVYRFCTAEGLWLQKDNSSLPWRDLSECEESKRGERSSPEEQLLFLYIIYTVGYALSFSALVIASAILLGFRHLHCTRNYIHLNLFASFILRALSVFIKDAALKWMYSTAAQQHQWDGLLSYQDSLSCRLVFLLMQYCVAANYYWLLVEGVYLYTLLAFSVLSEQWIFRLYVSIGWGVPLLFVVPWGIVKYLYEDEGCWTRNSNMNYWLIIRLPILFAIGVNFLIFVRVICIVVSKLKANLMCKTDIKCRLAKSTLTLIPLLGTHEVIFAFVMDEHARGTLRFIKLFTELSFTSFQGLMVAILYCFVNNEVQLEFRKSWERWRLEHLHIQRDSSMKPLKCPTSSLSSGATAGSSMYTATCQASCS
T1 sequence (P47871 26-477): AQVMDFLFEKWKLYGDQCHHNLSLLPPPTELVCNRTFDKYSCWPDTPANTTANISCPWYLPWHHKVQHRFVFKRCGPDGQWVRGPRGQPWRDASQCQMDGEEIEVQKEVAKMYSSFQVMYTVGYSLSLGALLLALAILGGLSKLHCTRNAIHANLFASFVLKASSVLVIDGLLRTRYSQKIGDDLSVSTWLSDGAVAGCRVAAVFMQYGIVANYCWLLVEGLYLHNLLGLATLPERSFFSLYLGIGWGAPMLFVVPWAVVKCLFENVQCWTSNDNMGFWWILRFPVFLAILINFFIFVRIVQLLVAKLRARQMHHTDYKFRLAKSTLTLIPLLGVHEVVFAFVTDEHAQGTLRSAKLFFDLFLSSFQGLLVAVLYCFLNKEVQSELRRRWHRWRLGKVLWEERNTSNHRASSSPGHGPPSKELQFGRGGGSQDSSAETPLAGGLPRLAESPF

Structure (SMILES): CC[C@H](C)[C@@H]1NC(=O)[C@@H](NC(=O)[C@H](CC(=O)O)NC(=O)[C@H](CC(C)C)NC(=O)[C@H](Cc2ccc(O)cc2)NC(=O)[C@H](CCCCN)NC(=O)[C@H](CO)NC(=O)[C@H](Cc2ccc(O)cc2)NC(=O)[C@H](CC(=O)O)NC(=O)[C@H](CO)NC(=O)[C@@H](NC(=O)[C@H](Cc2ccccc2)NC(=O)[C@@H](NC(=O)CNC(=O)[C@H](CCC(N)=O)NC(=O)[C@H](CO)NC(=O)[C@@H](N)Cc2ccc(O)cc2)[C@@H](C)O)[C@@H](C)O)CCC(=O)NCCCC[C@@H](C(=O)N[C@@H](CC(=O)O)C(=O)N[C@@H](Cc2ccccc2)C(=O)N[C@H](C(=O)N[C@@H](CC(N)=O)C(=O)N[C@@H](Cc2c[nH]c3ccccc23)C(=O)N[C@@H](CC(C)C)C(=O)N[C@@H](CC(C)C)C(=O)N[C@@H](C)C(=O)N[C@@H](CCC(N)=O)C(N)=O)C(C)C)NC(=O)[C@H](CCC(N)=O)NC(=O)[C@H](Cc2c[nH]cn2)NC1=O [mt-109] (H-YSQGTFTSDYSKYLDEIHQKDFVNWLLAQ-NH2; lactam 16-20; N-terminus assumed)
- Glucagon Receptor relative activity [1]: 76.92%
- GLP-1 Receptor relative activity [2]: 0.78%
- GIP Receptor relative activity [3]: 6.99%

Structure (SMILES): CC[C@H](C)[C@@H]1NC(=O)[C@@H](NC(=O)[C@H](CC(=O)O)NC(=O)[C@H](CC(C)C)NC(=O)[C@H](Cc2ccc(O)cc2)NC(=O)[C@H](CCCCN)NC(=O)[C@H](CO)NC(=O)[C@H](Cc2ccc(O)cc2)NC(=O)[C@H](CC(=O)O)NC(=O)[C@H](CO)NC(=O)[C@@H](NC(=O)[C@H](Cc2ccccc2)NC(=O)[C@@H](NC(=O)CNC(=O)[C@H](CCC(N)=O)NC(=O)[C@H](CO)NC(=O)[C@@H](N)Cc2c[nH]cn2)[C@@H](C)O)[C@@H](C)O)CCC(=O)NCCCC[C@@H](C(=O)N[C@@H](CC(=O)O)C(=O)N[C@@H](Cc2ccccc2)C(=O)N[C@H](C(=O)N[C@@H](CC(N)=O)C(=O)N[C@@H](Cc2c[nH]c3ccccc23)C(=O)N[C@@H](CC(C)C)C(=O)N[C@@H](CC(C)C)C(=O)N[C@@H](C)C(=O)NCC(=O)NCC(=O)N2CCC[C@H]2C(=O)N[C@@H](CO)C(=O)N[C@@H](CO)C(=O)NCC(=O)N[C@@H](C)C(=O)N2CCC[C@H]2C(=O)N2CCC[C@H]2C(=O)N2CCC[C@H]2C(=O)N[C@@H](CO)C(N)=O)C(C)C)NC(=O)[C@H](CCC(N)=O)NC(=O)[C@H](Cc2c[nH]cn2)NC1=O [mt-115] (H-HSQGTFTSDYSKYLDEIHQKDFVNWLLAGGPSSGAPPPS-NH2; lactam 16-20; N-terminus assumed)
- Glucagon Receptor relative activity [1]: 11.36%
- GLP-1 Receptor relative activity [2]: 20.00%
- GIP Receptor relative activity [3]: 1.31%

Structure (SMILES): CC[C@H](C)[C@@H]1NC(=O)[C@@H](NC(=O)[C@H](CC(=O)O)NC(=O)[C@H](CC(C)C)NC(=O)[C@H](Cc2ccc(O)cc2)NC(=O)[C@H](CCCCN)NC(=O)[C@H](CO)NC(=O)[C@H](Cc2ccc(O)cc2)NC(=O)[C@H](CC(=O)O)NC(=O)[C@H](CO)NC(=O)[C@@H](NC(=O)[C@H](Cc2ccccc2)NC(=O)[C@@H](NC(=O)CNC(=O)[C@H](CCC(N)=O)NC(=O)[C@H](CO)NC(=O)[C@@H](N)Cc2ccc(O)cc2)[C@@H](C)O)[C@@H](C)O)CCC(=O)NCCCC[C@@H](C(=O)N[C@@H](CCC(=O)O)C(=O)N[C@@H](Cc2ccccc2)C(=O)N[C@H](C(=O)N[C@@H](CC(N)=O)C(=O)N[C@@H](Cc2c[nH]c3ccccc23)C(=O)N[C@@H](CC(C)C)C(=O)N[C@@H](CC(C)C)C(=O)N[C@@H](C)C(=O)N[C@@H](CCC(N)=O)C(N)=O)C(C)C)NC(=O)[C@H](CCC(N)=O)NC(=O)[C@H](Cc2c[nH]cn2)NC1=O [mt-118] (H-YSQGTFTSDYSKYLDEIHQKEFVNWLLAQ-NH2; lactam 16-20; N-terminus assumed)
- Glucagon Receptor relative activity [1]: 125.00%
- GLP-1 Receptor relative activity [2]: 2.34%
- GIP Receptor relative activity [3]: 6.39%

Structure (SMILES): CC[C@H](C)[C@H](NC(=O)[C@H](Cc1ccccc1)NC(=O)[C@H](CCC(=O)O)NC(=O)[C@@H]1CCCCNC(=O)CC[C@H](NC(=O)[C@H](CC(=O)O)NC(=O)[C@H](CC(C)C)NC(=O)[C@H](Cc2ccc(O)cc2)NC(=O)[C@H](CCCCN)NC(=O)[C@H](CO)NC(=O)[C@H](Cc2ccc(O)cc2)NC(=O)[C@H](CC(=O)O)NC(=O)[C@H](CO)NC(=O)[C@@H](NC(=O)[C@H](Cc2ccccc2)NC(=O)[C@@H](NC(=O)CNC(=O)[C@H](CCC(N)=O)NC(=O)[C@H](CO)NC(=O)[C@@H](N)Cc2ccc(O)cc2)[C@@H](C)O)[C@@H](C)O)C(=O)N[C@@H](CCC(N)=O)C(=O)N[C@@H](C)C(=O)N[C@@H](C)C(=O)N1)C(=O)N[C@@H](C)C(=O)N[C@@H](Cc1c[nH]c2ccccc12)C(=O)N[C@@H](CC(C)C)C(=O)N[C@@H](CCSC)C(=O)N[C@@H](CC(N)=O)C(=O)NCC(=O)NCC(=O)N1CCC[C@H]1C(=O)N[C@@H](CO)C(=O)N[C@@H](CO)C(=O)NCC(=O)N[C@@H](C)C(=O)N1CCC[C@H]1C(=O)N1CCC[C@H]1C(=O)N1CCC[C@H]1C(=O)N[C@@H](CO)C(N)=O [mt-120] (H-YSQGTFTSDYSKYLDEQAAKEFIAWLMNGGPSSGAPPPS-NH2; lactam 16-20; N-terminus assumed)
- Glucagon Receptor relative activity [1]: 259.46%
- GLP-1 Receptor relative activity [2]: 13.45%
- GIP Receptor relative activity [3]: 1.81%

Next, values leading:

- Glucagon Receptor relative activity [1]: 68.42%
- GLP-1 Receptor relative activity [2]: 12.50%
- GIP Receptor relative activity [3]: 0.52%
Structure (SMILES): CC[C@H](C)[C@H](NC(=O)[C@H](Cc1ccccc1)NC(=O)[C@H](CCC(=O)O)NC(=O)[C@@H]1CCCCNC(=O)CC[C@H](NC(=O)[C@H](CC(=O)O)NC(=O)[C@H](CC(C)C)NC(=O)[C@H](C)NC(=O)[C@H](CCCCN)NC(=O)[C@H](CO)NC(=O)[C@H](Cc2ccc(O)cc2)NC(=O)[C@H](CC(=O)O)NC(=O)[C@H](CO)NC(=O)[C@@H](NC(=O)[C@H](Cc2ccccc2)NC(=O)[C@@H](NC(=O)CNC(=O)[C@H](CCC(N)=O)NC(=O)[C@H](CO)NC(=O)[C@@H](N)Cc2c[nH]cn2)[C@@H](C)O)[C@@H](C)CC)C(=O)N[C@@H]([C@@H](C)CC)C(=O)N[C@@H](Cc2c[nH]cn2)C(=O)N[C@@H](CCC(N)=O)C(=O)N1)C(=O)N[C@@H](C)C(=O)N[C@@H](Cc1c[nH]c2ccccc12)C(=O)N[C@@H](CC(C)C)C(=O)N[C@@H](CCSC)C(=O)N[C@@H](CC(N)=O)C(=O)N[C@H](C(N)=O)[C@@H](C)O [mt-108] (H-HSQGTFISDYSKALDEIHQKEFIAWLMNT-NH2; lactam 16-20; N-terminus assumed)

- Glucagon Receptor relative activity [1]: 23.26%
- GLP-1 Receptor relative activity [2]: 1.49%
- GIP Receptor relative activity [3]: 9.62%
Structure (SMILES): CC[C@H](C)[C@H](NC(=O)[C@H](CO)NC(=O)[C@H](Cc1ccc(O)cc1)NC(=O)[C@H](CC(=O)O)NC(=O)[C@H](CO)NC(=O)[C@@H](NC(=O)[C@H](Cc1ccccc1)NC(=O)[C@@H](NC(=O)CNC(=O)[C@H](CCC(N)=O)NC(=O)[C@H](CO)NC(=O)[C@@H](N)Cc1ccc(O)cc1)[C@@H](C)O)[C@@H](C)O)C(=O)N[C@@H](Cc1ccc(O)cc1)C(=O)N[C@@H](CC(C)C)C(=O)N[C@@H](CC(=O)O)C(=O)N[C@H]1CCC(=O)NCCCC[C@@H](C(=O)N[C@@H](CC(=O)O)C(=O)N[C@@H](Cc2ccccc2)C(=O)N[C@H](C(=O)N[C@@H](CC(N)=O)C(=O)N[C@@H](Cc2c[nH]c3ccccc23)C(=O)N[C@@H](CC(C)C)C(=O)N[C@@H](CC(C)C)C(=O)N[C@@H](C)C(=O)N[C@@H](CCC(N)=O)C(N)=O)C(C)C)NC(=O)[C@H](CCC(N)=O)NC(=O)[C@H](Cc2c[nH]cn2)NC(=O)[C@H]([C@@H](C)CC)NC1=O [mt-110] (H-YSQGTFTSDYSIYLDEIHQKDFVNWLLAQ-NH2; lactam 16-20; N-terminus assumed)

- Glucagon Receptor relative activity [1]: 85.19%
- EC50 ([2]; GLP-1 Receptor EC50, nM): 0.66 nM
- GLP-1 Receptor relative activity [2]: 10.61%
- GIP Receptor relative activity [3]: 0.78%
Structure (SMILES): CC[C@H](C)[C@@H]1NC(=O)[C@@H](NC(=O)[C@H](CC(=O)O)NC(=O)[C@H](CC(C)C)NC(=O)[C@H](Cc2ccc(O)cc2)NC(=O)[C@H](CCCCN)NC(=O)[C@H](CO)NC(=O)[C@H](Cc2ccc(O)cc2)NC(=O)[C@H](CC(=O)O)NC(=O)[C@H](CO)NC(=O)[C@@H](NC(=O)[C@H](Cc2ccccc2)NC(=O)[C@@H](NC(=O)CNC(=O)[C@H](CCC(N)=O)NC(=O)[C@H](CO)NC(=O)[C@@H](N)Cc2c[nH]cn2)[C@@H](C)O)[C@@H](C)O)CCC(=O)NCCCC[C@@H](C(=O)N[C@@H](CC(=O)O)C(=O)N[C@@H](Cc2ccccc2)C(=O)N[C@H](C(=O)N[C@@H](CC(N)=O)C(=O)N[C@@H](Cc2c[nH]c3ccccc23)C(=O)N[C@@H](CC(C)C)C(=O)N[C@@H](CC(C)C)C(=O)N[C@@H](C)C(=O)N[C@@H](CCC(N)=O)C(N)=O)C(C)C)NC(=O)[C@H](CCC(N)=O)NC(=O)[C@H](Cc2c[nH]cn2)NC1=O [mt-111] (H-HSQGTFTSDYSKYLDEIHQKDFVNWLLAQ-NH2; lactam 16-20; N-terminus assumed)
